Source: article PMC4139342, “Pharmacokinetics-Pharmacodynamics Analysis of Bicyclic 4-Nitroimidazole Analogs in a Murine Model of Tuberculosis” (PLoS ONE, 2014)
In brackets after ≈: the same amount, converted by molar mass. Read-outs that look alike come from different tables or passages of the source.

Columns and labels:
[1] = Cytotoxicity against THP1 macrophage cell lines; type: cell-based; conditions: human
[2] = test system: M. tuberculosis (Mtb) (H37Rv, ATCC 27294); experiment: microbe, parasite or virus in culture; type: cell-based; conditions: Mycobacterium tuberculosis
Mtb H37Rv = experiment: In vivo mouse efficacy, established murine TB model; design: species or system Balb/c mice; conditions: for Efficacy compared with PA-824, in words: significance at P<0.05
Protocol: In vivo mouse efficacy studies were determined after intranasal infection of Balb/c mice with 10^3 cfu Mtb H37Rv. Treatment was initiated 4 weeks after infection. Compounds were orally administered in CM-2 formulation for 4 weeks daily. Bacterial loads were determined at 2 and 4 weeks post treatment. Statistical analysis was done by a one-way analysis of variance, followed by a multiple comparison analysis of variance by a one-way Tukey test (GraphPad Prism, version 5.02, San Diago, California USA, www.graphpad.com). Differences were considered statistically significant at the 95% level of confidence.

[3] = female, CD-1, mouse, in vivo, po
in vivo [4] = conditions: female, CD-1, mouse, po
in vivo [5] = conditions: female, CD-1, mouse, iv; for clearance: i.v. CL
in vivo [6] = conditions: female, CD-1, mouse, po; remark: listed apart in the source
physchem [7] = conditions: pH 6.8, aqueous buffer, thermodynamic from solid
physchem [8] = experiment: physchem
in vitro [9] = conditions: human, Caco-2
in vitro [10] = conditions: mouse, plasma
[11] = In vivo lung PK after oral dosing; conditions: female, CD-1, mouse
[12] = In vivo plasma PK after intravenous dosing; conditions: mice; for half-life: female, CD-1, mouse, plasma, iv, T1/2 (i.v)
[13] = In vivo plasma PK after oral dosing in CM-2 formulation; conditions: female, CD-1, mouse, plasma, po
[14] = 100 mg/kg oral daily for 4 weeks, 5 animals
[15] = 100 mg/kg oral daily for 4 weeks
[16] = Mycobacterium tuberculosis, H37RV, po, 672 h, 100 mg/kg oral daily for 4 weeks, 5 animals, read-out: Mean log lung CFU reduction ± SEM compared to untreated controls
[17] = 10 mg/kg, Lung to Plasma ratio AUC24
[18] = 10 mg/kg, Lung to Plasma ratio Cmax
[19] = 10 mg/kg, i.v. dosing at 10 mg/kg
[20] = 25 mg/kg, Lung to Plasma ratio AUC24
[21] = 25 mg/kg, Lung to Plasma ratio Cmax
[22] = 5 mg/kg, i.v. dosing at 5 mg/kg

COc1ccc(C[C@H](N)C(=O)N[C@H]2[C@@H](O)[C@H](n3cnc4c(N(C)C)ncnc43)O[C@@H]2CO)cc1 [Puromycin, reference compound]
CC50 ([1]; THP1 macrophage cell lines, read-out: Cytotoxicity CC50): 1.4 µg/mL (≈ 2.97 µM)

O=[N+]([O-])c1cn2c(n1)OC[C@@H](NCCc1ccc(OC(F)(F)F)cc1)C2 [AminoEthyl-824]
MIC99 [2]: 0.06 µg/mL (≈ 0.161 µM) | CC50 [1]: > 10 µg/mL | Mean log lung CFU ± SEM (Mtb H37Rv; [14]): 4.53±0.07 log CFU | Efficacy compared with PA-824, in words (Mtb H37Rv; [15]): comparable efficacy to PA-824 | log reduction at 100 mg/kg (Mtb H37Rv; [16]): 1.69 ± 0.07 | PAMPA %FA: 85% | PAMPA Log Pe: –4.6 cm/sec | Lung AUC24 ([3]; 10 mg/kg): 5.2 µg·h/g | Lung Cmax ([3]; 10 mg/kg): 1.6 µg/g | AUC (in vivo [4]; 10 mg/kg): 2900 ng·h/mL | Cmax (in vivo [4]; 10 mg/kg): 1000 ng/mL | bioavailability (in vivo [4]; 10 mg/kg): 76% | Vd (in vivo [5]; 10 mg/kg): 2 L/kg | clearance (in vivo [5]; 10 mg/kg): 44 mL/min/kg | Kp (in vivo [6]; [17]): 1.8 | Kp (in vivo [6]; [18]): 1.6 | solubility (physchem [7]): 104 µg/mL (≈ 279 µM) | logP (physchem [8]): 3.6 | Papp A→B (in vitro [9]): 18.6 ×10⁻⁶ cm/s | Papp B→A (in vitro [9]): 20.7 ×10⁻⁶ cm/s | efflux ratio (in vitro [9]): 1.1 | fraction unbound (in vitro [10]): 0.55 | half-life ([11]; 10 mg/kg): 1.2 h | half-life [12, 19]: < 1 h | T1/2 (i.v) ([12]; i.v. dosing at 10 mg/kg, 10 mg/kg): 0.7 h | half-life ([13]; 10 mg/kg): 1.7 h

CC[C@@H]1Oc2nc([N+](=O)[O-])cn2C[C@@H]1OCc1ccc(OC(F)(F)F)cc1 [NI-145]
MIC99 [2]: 0.06 µg/mL (≈ 0.155 µM) | CC50 [1]: > 10 µg/mL | PAMPA %FA: 99% | PAMPA Log Pe: –3.85 cm/sec | Lung AUC24 ([3]; 25 mg/kg): 34.6 µg·h/g | Lung Cmax ([3]; 25 mg/kg): 4.2 µg/g | AUC (in vivo [4]; 25 mg/kg): 16200 ng·h/mL | Cmax (in vivo [4]; 25 mg/kg): 1800 ng/mL | Tmax (in vivo [4]; 25 mg/kg): 2 h | bioavailability (in vivo [4]; 25 mg/kg): 68% | Vd (in vivo [5]; 5 mg/kg): 1.7 L/kg | clearance (in vivo [5]; 5 mg/kg): 17 mL/min/kg | Tmax (in vivo [6]; 25 mg/kg): 2 h | Kp (in vivo [6]; [20]): 2.1 | Kp (in vivo [6]; [21]): 2.3 | solubility (physchem [7]): < 2 µg/mL | logP (physchem [8]): 3.85 | half-life ([11]; 25 mg/kg): 4.1 h | half-life [12, 22]: 2 h | half-life ([13]; 25 mg/kg): 4.2 h

O=[N+]([O-])c1cn2c(n1)OC[C@@H](NCc1ccc(OC(F)(F)F)cc1)C2 [Amino-824, ((s)-2-nitro-6,7-dihydro-5H-imidazo[2,1-b][1,3]oxazin-6-yl)-(4-trifluoromethoxybenzyl)amine]
MIC99 [2]: 0.14 µg/mL (≈ 0.391 µM) | CC50 [1]: > 10 µg/mL | Mean log lung CFU ± SEM (Mtb H37Rv; [14]): 5.14±0.08 log CFU | Efficacy compared with PA-824, in words (Mtb H37Rv; [15]): significantly (P<0.05) less efficacious than PA-824 | log reduction at 100 mg/kg (Mtb H37Rv; [16]): 1.08 ± 0.08 | PAMPA %FA: 91% | PAMPA Log Pe: –4.8 cm/sec | Lung AUC24 ([3]; 10 mg/kg): 4.5 µg·h/g | Lung Cmax ([3]; 10 mg/kg): 1.4 µg/g | AUC (in vivo [4]; 10 mg/kg): 6000 ng·h/mL | Cmax (in vivo [4]; 10 mg/kg): 1700 ng/mL | bioavailability (in vivo [4]; 10 mg/kg): 74% | Vd (in vivo [5]; 10 mg/kg): 2.3 L/kg | clearance (in vivo [5]; 10 mg/kg): 20.5 mL/min/kg | Kp (in vivo [6]; [17]): 0.8 | Kp (in vivo [6]; [18]): 0.8 | solubility (physchem [7]): 127 µg/mL (≈ 354 µM) | logP (physchem [8]): 2.5 | Papp A→B (in vitro [9]): 35.4 ×10⁻⁶ cm/s | Papp B→A (in vitro [9]): 21 ×10⁻⁶ cm/s | efflux ratio (in vitro [9]): 0.6 | fraction unbound (in vitro [10]): 0.2 | half-life ([11]; 10 mg/kg): 1.3 h | half-life [12, 19]: 2 h | half-life ([13]; 10 mg/kg): 2 h

CC[C@@H]1Oc2nc([N+](=O)[O-])cn2C[C@@H]1NCc1ccc(OC(F)(F)F)cc1 [NI-269]
MIC99 [2]: 0.03 µg/mL (≈ 0.0777 µM) | CC50 [1]: > 10 µg/mL | PAMPA %FA: 99% | PAMPA Log Pe: –3.7 cm/sec | Lung AUC24 ([3]; 25 mg/kg): 27.5 µg·h/g | Lung Cmax ([3]; 25 mg/kg): 5.4 µg/g | AUC (in vivo [4]; 25 mg/kg): 16000 ng·h/mL | Cmax (in vivo [4]; 25 mg/kg): 2800 ng/mL | Tmax (in vivo [4]; 25 mg/kg): 0.3 h | bioavailability (in vivo [4]; 25 mg/kg): 88% | Vd (in vivo [5]; 5 mg/kg): 2.6 L/kg | clearance (in vivo [5]; 5 mg/kg): 19.7 mL/min/kg | Tmax (in vivo [6]; 25 mg/kg): 0.3 h | Kp (in vivo [6]; [20]): 1.7 | Kp (in vivo [6]; [21]): 1.9 | solubility (physchem [7]): 12 µg/mL (≈ 31.1 µM) | logP (physchem [8]): 3.15 | half-life ([11]; 25 mg/kg): 2.7 h | half-life [12, 22]: 2.1 h | half-life ([13]; 25 mg/kg): 3.8 h

O=C(CO[C@@H]1COc2nc([N+](=O)[O-])cn2C1)N1CCN(c2ccc(OC(F)(F)F)cc2)CC1 [NI-622]
MIC99 [2]: 0.18 µg/mL (≈ 0.382 µM) | CC50 [1]: > 10 µg/mL | Mean log lung CFU ± SEM (Mtb H37Rv; 25 mg/kg oral daily for 4 weeks, 5 animals): 5.77±0.08 log CFU | Efficacy compared with PA-824, in words (Mtb H37Rv; 25 mg/kg oral daily for 4 weeks): significantly (P<0.05) less efficacious than PA-824 | Mean log lung CFU ± SEM (Mtb H37Rv; [14]): 5.85±0.11 log CFU | Efficacy compared with PA-824, in words (Mtb H37Rv; [15]): significantly (P<0.05) less efficacious than PA-824 | Dose dependence of efficacy, in words (Mtb H37Rv; 25 versus 100 mg/kg oral daily for 4 weeks): no dose-dependent increase in bactericidal activity | log reduction at 25 mg/kg (Mtb H37Rv; Mycobacterium tuberculosis, H37RV, po, 672 h, 25 mg/kg oral daily for 4 weeks, 5 animals, read-out: Mean log lung CFU reduction ± SEM compared to untreated controls): 0.48 to 0.89 | log reduction at 100 mg/kg (Mtb H37Rv; [16]): 0.81 ± 0.11 | PAMPA %FA: 31% | PAMPA Log Pe: –5.3 cm/sec | Lung AUC24 ([3]; 50 mg/kg): 71.1 µg·h/g | Lung Cmax ([3]; 50 mg/kg): 10.2 µg/g | AUC (in vivo [4]; 50 mg/kg): 108000 ng·h/mL | Cmax (in vivo [4]; 50 mg/kg): 14800 ng/mL | bioavailability (in vivo [4]; 50 mg/kg): 100% | Vd (in vivo [5]; 10 mg/kg): 1.8 L/kg | clearance (in vivo [5]; 10 mg/kg): 14.7 mL/min/kg | Kp (in vivo [6]; 50 mg/kg, Lung to Plasma ratio AUC24): 0.7 | Kp (in vivo [6]; 50 mg/kg, Lung to Plasma ratio Cmax): 0.7 | solubility (physchem [7]): 28.2 µg/mL (≈ 59.8 µM) | logP (physchem [8]): 2.9 | Papp A→B (in vitro [9]): 9.5 ×10⁻⁶ cm/s | Papp B→A (in vitro [9]): 12.4 ×10⁻⁶ cm/s | efflux ratio (in vitro [9]): 1.3 | fraction unbound (in vitro [10]): 0.03 | half-life ([11]; 50 mg/kg): 1.8 h | half-life [12, 19]: 1.8 h | half-life ([13]; 50 mg/kg): 2.1 h

CC[C@@H]1Oc2nc([N+](=O)[O-])cn2C[C@@H]1NCc1ccc(OC(F)(F)F)c(F)c1 [NI-176]
MIC99 [2]: 0.03 µg/mL (≈ 0.0742 µM) | CC50 [1]: > 10 µg/mL | PAMPA %FA: 99% | PAMPA Log Pe: –3.7 cm/sec | Lung AUC24 ([3]; 25 mg/kg): 30.3 µg·h/g | Lung Cmax ([3]; 25 mg/kg): 4.8 µg/g | AUC (in vivo [4]; 25 mg/kg): 13700 ng·h/mL | Cmax (in vivo [4]; 25 mg/kg): 2200 ng/mL | bioavailability (in vivo [4]; 25 mg/kg): 86% | Vd (in vivo [5]; 5 mg/kg): 1.8 L/kg | clearance (in vivo [5]; 5 mg/kg): 22.2 mL/min/kg | Kp (in vivo [6]; [20]): 2.2 | Kp (in vivo [6]; [21]): 2.2 | solubility (physchem [7]): 8 µg/mL (≈ 19.8 µM) | logP (physchem [8]): 3.5 | half-life ([11]; 25 mg/kg): 4.3 h | half-life [12, 22]: 1 h | half-life ([13]; 25 mg/kg): 4.3 h
